Laboratory results published in article PMC9402538, “Rational design of a sensitivity-enhanced tracer for discovering efficient APC–Asef inhibitors” (Nature Communications, 2022).
Where “and” joins values, the source holds several entries; their conditions need not be identical. Identical values can stand only once. Like-named read-outs stand apart in the source and are kept apart here. Each block holds one compound with its values, some of them ahead of it. Where a SMILES comes first, the peptide text is derived from it. [ ]: non-standard residue; d: D form. The star is where a group is joined. Bpa = N[C@@H](Cc1ccc(C(=O)c2ccccc2)cc1)C(=O)O; Cyclopentanecarbonyl = O=C(C1CCCC1)*; Benzoyl(4-OMe) = COc1ccc(C(=O)*)cc1

Molecular target: T1, APC (303–739) (Homo sapiens, UniProt P25054)
T1 sequence (P25054 303-739): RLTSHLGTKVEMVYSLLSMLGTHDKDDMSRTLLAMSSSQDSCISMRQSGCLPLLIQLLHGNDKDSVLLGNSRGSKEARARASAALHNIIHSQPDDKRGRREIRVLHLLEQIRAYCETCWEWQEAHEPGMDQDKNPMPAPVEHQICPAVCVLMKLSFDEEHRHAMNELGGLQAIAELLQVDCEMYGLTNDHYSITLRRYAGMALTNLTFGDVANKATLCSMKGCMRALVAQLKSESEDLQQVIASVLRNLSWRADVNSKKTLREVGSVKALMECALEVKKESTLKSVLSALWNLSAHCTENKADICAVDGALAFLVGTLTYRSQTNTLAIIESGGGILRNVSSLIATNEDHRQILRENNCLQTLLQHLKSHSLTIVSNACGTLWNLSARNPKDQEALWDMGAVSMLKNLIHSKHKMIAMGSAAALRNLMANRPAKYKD
Test: FP competitive assay using tracer 7
Format: binding
Procedure: FITC-labeled tracer peptides were obtained from Changzhou Kanglong Biotech Ltd. (Changzhou, Jiangsu, China). […]. The FP signal changes upon tracer binding were measured after 1.5 h of incubation using a Synergy neo microplate reader (BioTek Instruments, Inc.) and plotted against the protein concentration. The corresponding EC50 values were generated by fitting the curves with a nonlinear regression model. […]. To make a working solution, APC (303–739) was diluted in FP buffer (50 mM HEPES, pH 7.5, 300 mM NaCl, 1 mM EDTA, 1 mM DTT). The diluted APC protein (91 μL) was combined with a serial dilution of peptides (4 μL) and incubated at room temperature for 1 h, followed by the addition of 5 μL of 400 nM tracer 7. The FP signals were measured after 1.5 h of incubation at room temperature using a Synergy neo microplate reader. Three controls were included on each plate, i.e., blank (without protein and tracer), 100% inhibition (free tracer only), and 0% inhibition (protein/tracer complex only) controls. All experiments were performed in triplicate. The IC50 values of peptides were calculated by nonlinear regression analysis using GraphPad Prism 7.0 software.

[1] = Conc. 0.0049 μM, individual repeats, Fig3b
[2] = Conc. 0.0098 μM, individual repeats, Fig3b
[3] = Conc. 0.0195 μM, individual repeats, Fig3b
[4] = Conc. 0.0391 μM, individual repeats, Fig3b
[5] = Conc. 0.0781 μM, individual repeats, Fig3b
[6] = Conc. 0.1563 μM, individual repeats, Fig3b
[7] = Conc. 0.3125 μM, individual repeats, Fig3b
[8] = Conc. 0.625 μM, individual repeats, Fig3b
[9] = Conc. 2.5 μM, individual repeats, Fig3b
[10] = Conc. 5 μM, individual repeats, Fig3b
[11] = Conc. 10 μM, individual repeats, Fig3b
[12] = Conc. 20 μM, individual repeats, Fig3b

Structure (SMILES): COc1ccc(C(=O)N[C@@H](C)C(=O)NCC(=O)N[C@@H](CCC(=O)O)C(=O)N[C@@H](CO)C(=O)N[C@@H](CC(C)C)C(=O)N[C@@H](Cc2ccc(O)cc2)C(=O)N[C@@H](Cc2ccc(C(=O)c3ccccc3)cc2)C(N)=O)cc1 [MAI-521] ({Benzoyl(4-OMe)}-AGESLY[Bpa]-NH2)
- inhibition at 0.0015 µM (Conc. 0.0015 μM, individual repeats, Fig3b): 1.5%
- %inhibition (Conc. 0.0024 μM, individual repeats, Fig3b): -0.4% and 2.8%
- inhibition at 0.0031 µM (Conc. 0.0031 μM, individual repeats, Fig3b): 2%
- %inhibition [1]: 2.6%
- inhibition at 0.0049 µM [1]: 1.8%
- inhibition at 0.006 µM (Conc. 0.006 μM, individual repeats, Fig3b): 3.2%
- %inhibition [2]: 10.8%
- inhibition at 0.0098 µM [2]: 6.3%
- inhibition at 0.012 µM (Conc. 0.012 μM, individual repeats, Fig3b): 9%
- %inhibition [3]: 24.3%
- inhibition at 0.0195 µM [3]: 16%
- inhibition at 0.024 µM (Conc. 0.024 μM, individual repeats, Fig3b): 22.1%
- %inhibition [4]: 41%
- inhibition at 0.0391 µM [4]: 35.5%
- inhibition at 0.049 µM (Conc. 0.049 μM, individual repeats, Fig3b): 39.2%
- %inhibition [5]: 60.9%
- inhibition at 0.0781 µM [5]: 56.4%
- inhibition at 0.098 µM (Conc. 0.098 μM, individual repeats, Fig3b): 74.8%
- %inhibition [6]: 75%
- inhibition at 0.1563 µM [6]: 74.4%
- inhibition at 0.195 µM (Conc. 0.195 μM, individual repeats, Fig3b): 77.9%
- %inhibition [7]: 86.3%
- inhibition at 0.3125 µM [7]: 86%
- inhibition at 0.391 µM (Conc. 0.391 μM, individual repeats, Fig3b): 87.6%
- %inhibition [8]: 93.8%
- inhibition at 0.625 µM [8]: 92%
- inhibition at 0.781 µM (Conc. 0.781 μM, individual repeats, Fig3b): 92.8%
- inhibition at 1.25 µM (Conc. 1.25 μM, individual repeats, Fig3b): 95.3%
- inhibition at 1.563 µM (Conc. 1.563 μM, individual repeats, Fig3b): 95.7%
- %inhibition [9]: 98.9%
- inhibition at 2.5 µM [9]: 96.1%
- inhibition at 3.125 µM (Conc. 3.125 μM, individual repeats, Fig3b): 97.1%
- %inhibition [10]: 100.8%
- inhibition at 5 µM [10]: 96.6%
- inhibition at 6.25 µM (Conc. 6.25 μM, individual repeats, Fig3b): 98.3%
- %inhibition [11]: 101.1%
- inhibition at 10 µM [11]: 97.4%
- inhibition at 12.5 µM (Conc. 12.5 μM, individual repeats, Fig3b): 97.7%
- %inhibition [12]: 101.7%
- inhibition at 20 µM [12]: 97%
- IC50 (IC50 Repeat 1, tracer 7): 0.0536 µM
- IC50 (IC50 Repeat 2, tracer 7): 0.054 µM
- IC50 (IC50 Repeat 3, tracer 7): 0.0516 µM
- IC50 (IC50 mean, tracer 7, mean of three repeats): 0.0531 µM
- mean (FP signal, FigS5) (Repeat 1, Conc. 0.0015 μM): 296.3
- mean (FP signal, FigS5) (Repeat 1, Conc. 0.0031 μM): 295
- mean (FP signal, FigS5) (Repeat 1, Conc. 0.006 μM): 292
- mean (FP signal, FigS5) (Repeat 1, Conc. 0.012 μM): 277.7
- mean (FP signal, FigS5) (Repeat 1, Conc. 0.024 μM): 245
- mean (FP signal, FigS5) (Repeat 1, Conc. 0.049 μM): 202.3
- mean (FP signal, FigS5) (Repeat 1, Conc. 0.098 μM): 113.7
- mean (FP signal, FigS5) (Repeat 1, Conc. 0.195 μM): 106
- mean (FP signal, FigS5) (Repeat 1, Conc. 0.391 μM): 82
- mean (FP signal, FigS5) (Repeat 1, Conc. 0.781 μM): 69
- mean (FP signal, FigS5) (Repeat 1, Conc. 1.563 μM): 61.7
- mean (FP signal, FigS5) (Repeat 1, Conc. 3.125 μM): 58.3
- mean (FP signal, FigS5) (Repeat 1, Conc. 6.25 μM): 55.3
- mean (FP signal, FigS5) (Repeat 1, Conc. 12.5 μM): 56.7
- mean (FP signal, FigS5) (Repeat 2, Conc. 0.0024 μM): 282.7
- mean (FP signal, FigS5) (Repeat 2, Conc. 0.0049 μM): 277.5
- mean (FP signal, FigS5) (Repeat 2, Conc. 0.0098 μM): 267
- mean (FP signal, FigS5) (Repeat 2, Conc. 0.0195 μM): 244.3
- mean (FP signal, FigS5) (Repeat 2, Conc. 0.0391 μM): 199
- mean (FP signal, FigS5) (Repeat 2, Conc. 0.0781 μM): 150.3
- mean (FP signal, FigS5) (Repeat 2, Conc. 0.1563 μM): 108.7
- mean (FP signal, FigS5) (Repeat 2, Conc. 0.3125 μM): 81.7
- mean (FP signal, FigS5) (Repeat 2, Conc. 0.625 μM): 67.7
- mean (FP signal, FigS5) (Repeat 2, Conc. 1.25 μM): 60
- mean (FP signal, FigS5) (Repeat 2, Conc. 2.5 μM): 58
- mean (FP signal, FigS5) (Repeat 2, Conc. 5 μM): 57
- mean (FP signal, FigS5) (Repeat 2, Conc. 10 μM): 55
- mean (FP signal, FigS5) (Repeat 2, Conc. 20 μM): 56
- mean (FP signal, FigS5) (Repeat 3, Conc. 0.0024 μM): 286
- mean (FP signal, FigS5) (Repeat 3, Conc. 0.0049 μM): 286.5
- mean (FP signal, FigS5) (Repeat 3, Conc. 0.0098 μM): 266.5
- mean (FP signal, FigS5) (Repeat 3, Conc. 0.0195 μM): 234
- mean (FP signal, FigS5) (Repeat 3, Conc. 0.0391 μM): 193.7
- mean (FP signal, FigS5) (Repeat 3, Conc. 0.0781 μM): 145.7
- mean (FP signal, FigS5) (Repeat 3, Conc. 0.1563 μM): 111.7
- mean (FP signal, FigS5) (Repeat 3, Conc. 0.3125 μM): 84.3
- mean (FP signal, FigS5) (Repeat 3, Conc. 0.625 μM): 66.3
- mean (FP signal, FigS5) (Repeat 3, Conc. 1.25 μM): 58.7
- mean (FP signal, FigS5) (Repeat 3, Conc. 2.5 μM): 54
- mean (FP signal, FigS5) (Repeat 3, Conc. 5 μM): 49.3
- mean (FP signal, FigS5) (Repeat 3, Conc. 10 μM): 48.7
- mean (FP signal, FigS5) (Repeat 3, Conc. 20 μM): 47.3

- IC50 (Repeat 1, Table 3 source data, read-out: IC50(μM) Repeat 1): 7.09 µM
- IC50 (Repeat 2, Table 3 source data, read-out: IC50(μM) Repeat 2): 5.22 µM
- IC50 (Repeat 3, Table 3 source data, read-out: IC50(μM) Repeat 3): 5.07 µM
- IC50 (mean of 3 repeats, Table 3 source data, read-out: IC50(μM) mean): 5.79 µM
Structure (SMILES): CC(C)C[C@H](NC(=O)[C@H](CO)NC(=O)[C@H](CCC(=O)O)NC(=O)CNC(=O)[C@H](C)NC(=O)C1CCCC1)C(=O)N[C@@H](Cc1ccc(O)cc1)C(=O)N[C@@H](CCC(=O)O)C(N)=O [MAI-503] (Cyclopentanecarbonyl-AGESLYE-NH2)
